Reference: patent US11254668B2, “Pyrazolo[1,5-A]pyrazin-4-yl and related derivatives” (Pfizer Inc., priority 2017, dated 2022)
Read-outs that look alike come from different tables or passages of the source.

Key:
Format in all cases: biochemical
TYK2 = TYK2 (Homo sapiens (Human), UniProt P29597); experiment: JAK Caliper Enzyme Assay at 1 mM ATP, TYK2
How it was run: (§1)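 First, compound was incubated at room temperature with recombinant human kinase domain, a synthetic peptide and 1 mM ATP until 20–30% of peptide was phosphorylated. Next, EDTA stopped the reaction. Finally, electrophoretic separation quantified product, and percent effect relative to controls was plotted against concentration.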

JAK1 = JAK1 (Homo sapiens (Human), UniProt P23458); experiment: JAK Caliper Enzyme Assay at 1 mM ATP, JAK1
Chain of JAK1 (P23458 875-1153): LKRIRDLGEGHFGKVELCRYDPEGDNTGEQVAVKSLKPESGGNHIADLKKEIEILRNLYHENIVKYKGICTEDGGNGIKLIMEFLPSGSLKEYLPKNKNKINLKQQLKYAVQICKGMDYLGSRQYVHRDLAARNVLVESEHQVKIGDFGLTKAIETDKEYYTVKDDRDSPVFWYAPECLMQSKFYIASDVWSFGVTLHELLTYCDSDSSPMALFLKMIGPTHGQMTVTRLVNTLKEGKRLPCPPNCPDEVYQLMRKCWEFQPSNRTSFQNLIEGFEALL
How it was run: (§2)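 IC50 (nM) derived from percent conversion of fluorescently labelled peptide, measured by Caliper LabChip mobility-shift separation after EDTA stop. Each JAK family kinase domain (human, recombinant) run at 1 mM ATP and room temperature, conditions set to 20-30% product; DMSO wells define uninhibited baseline.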

JAK2 = JAK2 (Homo sapiens (Human), UniProt O60674); experiment: JAK Caliper Enzyme Assay at 1 mM ATP, JAK2
Chain of JAK2 (O60674 849-1124): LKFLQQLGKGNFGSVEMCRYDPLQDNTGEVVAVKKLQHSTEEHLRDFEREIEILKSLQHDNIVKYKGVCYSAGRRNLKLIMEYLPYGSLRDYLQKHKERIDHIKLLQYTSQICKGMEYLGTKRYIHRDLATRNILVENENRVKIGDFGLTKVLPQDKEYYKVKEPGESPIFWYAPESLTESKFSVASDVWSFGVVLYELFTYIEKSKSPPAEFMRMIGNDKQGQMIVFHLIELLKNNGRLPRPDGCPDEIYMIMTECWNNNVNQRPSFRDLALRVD
How it was run: as §1

JAK3 = JAK3 (Homo sapiens (Human), UniProt P52333); experiment: JAK Caliper Enzyme Assay at 1 mM ATP, JAK3
Chain of JAK3 (P52333 822-1111): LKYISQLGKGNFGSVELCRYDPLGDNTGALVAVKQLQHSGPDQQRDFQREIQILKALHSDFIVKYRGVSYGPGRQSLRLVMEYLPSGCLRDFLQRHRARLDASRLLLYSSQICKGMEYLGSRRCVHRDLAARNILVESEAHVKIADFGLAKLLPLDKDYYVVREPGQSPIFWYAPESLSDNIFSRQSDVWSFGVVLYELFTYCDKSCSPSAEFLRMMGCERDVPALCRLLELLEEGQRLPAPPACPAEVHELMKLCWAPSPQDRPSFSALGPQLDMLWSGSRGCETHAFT
How it was run: as §2

Chain of TYK2 (P29597 897-1176): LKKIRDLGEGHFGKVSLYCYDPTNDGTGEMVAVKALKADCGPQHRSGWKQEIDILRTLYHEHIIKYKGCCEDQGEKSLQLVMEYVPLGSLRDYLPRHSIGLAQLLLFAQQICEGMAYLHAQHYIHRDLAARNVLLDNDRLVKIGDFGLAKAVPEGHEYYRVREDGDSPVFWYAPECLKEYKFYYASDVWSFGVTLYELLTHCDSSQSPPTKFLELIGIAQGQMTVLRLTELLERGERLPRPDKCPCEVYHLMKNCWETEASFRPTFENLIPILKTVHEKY

Structure (SMILES)	IC50 (TYK2)	IC50 (JAK1)	IC50 (JAK2)	IC50 (JAK3)	IC50 (TYK2; JAK Caliper enzyme assay)	IC50 (JAK1; JAK Caliper enzyme assay)	IC50 (JAK2; JAK Caliper enzyme assay)	IC50 (JAK3; JAK Caliper enzyme assay)
CS(=O)(=O)N1CC(CC#N)(n2ncc(-c3cc(-c4ccc(N)nc4)cc4ncccc34)n2)C1 [Example 364, [3-{4-[7-(6-aminopyridin-3-yl)quinolin-5-yl]-2H-1,2,3-triazol-2-yl}-1-(methylsulfonyl)azetidin-3-yl]acetonitrile]	67 nM	2960 nM	834 nM	> 10000 nM				
CS(=O)(=O)N1CC(CC#N)(n2ccc(-c3nc(-c4ccc5nccn5c4)cc4ncccc34)n2)C1 [Example 162, [3-{3-[7-(imidazo[1,2-a]pyridin-6-yl)-1,6-naphthyridin-5-yl]-1H-pyrazol-1-yl}-1-(methylsulfonyl)azetidin-3-yl]acetonitrile]	68 nM	788 nM	546 nM	> 10000 nM				
CC(=O)NC1CC(CC#N)(n2ccc(-c3nc(-c4cc[nH]n4)cc4ncccc34)n2)C1 (stereo not drawn) [Example 32, N-[trans-3-(cyanomethyl)-3-{3-[7-(1H-pyrazol-3-yl)-1,6-naphthyridin-5-yl]-pyrazol-1-yl}cyclobutyl]acetamide]	730 nM	5830 nM	3430 nM	> 10000 nM				
Cn1cc(-c2cc3ncccc3c(-c3ccn(C4(CC#N)CN(S(C)(=O)=O)C4)n3)n2)cn1 [Example 104, [3-{3-[7-(1-methyl-1H-pyrazol-4-yl)-1,6-naphthyridin-5-yl]-1H-pyrazol-1-yl}-1-(methylsulfonyl)azetidin-3-yl]acetonitrile]	19 nM	1380 nM	164 nM	> 10000 nM				
Cn1cc(-c2cn3ncnc3c(-c3cnn(C4(CC#N)CN(S(C)(=O)=O)C4)c3)n2)cn1 [Example 478, [3-{4-[6-(1-methyl-1H-pyrazol-4-yl)[1,2,4,5-a]pyrazin-8-yl]-1H-pyrazol-1-yl}-1-(methylsulfonyl)azetidin-3-yl]acetonitrile]					281 nM	> 10000 nM	2190 nM	> 10000 nM
CS(=O)(=O)N1CC(CC#N)(n2ccc(-c3cc(-c4cn[nH]c4)cc4ncccc34)n2)C1 [Example 284, [1-(methylsulfonyl)-3-{3-[7-(1H-pyrazol-4-yl)quinolin-5-yl]-1H-pyrazol-1-yl}azetidin-3-yl]acetonitrile]	171 nM	6830 nM	2500 nM	> 10000 nM				
CS(=O)(=O)N1CC(CC#N)(n2cnc(-c3cc(-c4ccn[nH]4)cc4ncccc34)n2)C1 [Example 452, [1-(methylsulfonyl)-3-{3-[7-(1H-pyrazol-5-yl)quinolin-5-yl]-1H-1,2,4-triazol-1-yl}azetidin-3-yl]acetonitrile]					322 nM	7190 nM	6810 nM	> 10000 nM
N#CCC1(n2ccc(-c3nc(-c4ccn[nH]4)cc4ncccc34)n2)CC(CO)C1 (stereo not drawn) [Example 28, [trans-3-(hydroxymethyl)-1-{3-[7-(1H-pyrazol-5-yl)-1,6-naphthyridin-5-yl]-pyrazol-1-yl}cyclobutyl]acetonitrile]	207 nM	2570 nM	1790 nM	> 10000 nM				
CO[C@H]1C[C@@](CC#N)(n2ccc(-c3nc(-c4cnn(CCO)c4)cc4ncccc34)n2)C1 [Example 128, [cis-1-(3-{7-[1-(2-hydroxyethyl)-1H-pyrazol-4-yl]-1,6-naphthyridin-5-yl}-1H-pyrazol-1-yl)-3-methoxycyclobutyl]acetonitrile]	115 nM	3530 nM	620 nM	> 10000 nM				
CO[C@H]1C[C@](CC#N)(n2ccc(-c3nc(-c4ccn[nH]4)cc4ncccc34)n2)C1 [Example 30, (trans-3-methoxy-1-{3-[7-(1H-pyrazol-5-yl)-1,6-naphthyridin-5-yl]-1H-pyrazol-1-yl}cyclobutyl)acetonitrile]	75 nM	1960 nM	1770 nM	> 10000 nM				
C[C@]1(C#N)C[C@](CC#N)(n2ccc(-c3nc(-c4ccnc(N)c4)cc4ncccc34)n2)C1 [Example 200, trans-3-{3-[7-(2-aminopyridin-4-yl)-1,6-naphthyridin-5-yl]-1H-pyrazol-1-yl}-3-(cyanomethyl)-1-methylcyclobutanecarbonitrile]	573 nM	3220 nM	2970 nM	> 10000 nM				
CO[C@H]1C[C@](CC#N)(n2cc(-c3cc(-c4c[nH]nc4CO)cc4nccn34)cn2)C1 [Example 464, [trans-1-(4-{7-[3-(hydroxymethyl)-1H-pyrazol-4-yl]imidazo[1,2-a]pyridin-5-yl}-1H-pyrazol-1-yl)-3-methoxycyclobutyl]acetonitrile]					4660 nM	> 10000 nM	> 10000 nM	> 10000 nM
N#CC[C@]1(n2ccc(-c3nc(-c4cnnc(N)c4)cc4ncccc34)n2)C[C@H](C#N)C1 [Example 239, trans-3-{3-[7-(6-aminopyridazin-4-yl)-1,6-naphthyridin-5-yl]-1H-pyrazol-1-yl}-3-(cyanomethyl)cyclobutanecarbonitrile]	96 nM	3720 nM	1120 nM	> 10000 nM				
Cc1cc(-c2cc(-c3cnn(C4(CC#N)CN(S(C)(=O)=O)C4)n3)c3cccnc3c2)ccn1 [Example 356, [3-{4-[7-(2-methylpyridin-4-yl)quinolin-5-yl]-2H-1,2,3-triazol-2-yl}-1-(methylsulfonyl)azetidin-3-yl]acetonitrile]	130 nM	> 10000 nM	973 nM	> 10000 nM				
N#CCC1(n2ncc(-c3cc(-c4ncccn4)cc4ncccc34)n2)CC(C#N)C1 (stereo not drawn) [Example 390, trans-3-(cyanomethyl)-3-{4-[7-(pyrimidin-2-yl)quinolin-5-yl]-2H-1,2,3-triazol-2-yl}cyclobutanecarbonitrile]					1280 nM	> 10000 nM	> 10000 nM	> 10000 nM
N#CCC1(n2ncc(-c3cc(-c4nc(CO)cs4)cc4ncccc34)n2)CC(C#N)C1 (stereo not drawn) [Example 340, cis-3-(cyanomethyl)-3-(4-{7-[4-(hydroxymethyl)-1,3-thiazol-2-yl]quinolin-5-yl}-2H-1,2,3-triazol-2-yl)cyclobutanecarbonitrile]	13 nM	432 nM	94 nM	8910 nM				
N#CC[C@H]1C[C@](CC#N)(n2ccc(-c3nc(-c4cn[nH]c4)cc4ncccc34)n2)C1 [Example 79, 2,2′-(trans-1-{3-[7-(1H-pyrazol-4-yl)-1,6-naphthyridin-5-yl]-1H-pyrazol-1-yl}cyclobutane-1,3-diyl)diacetonitrile]	74 nM	1050 nM	774 nM	> 10000 nM				
Cn1cc(-c2cc3ncccc3c(-c3cnn(C4(CC#N)CN(CC(F)(F)F)C4)c3)n2)cn1 [Example 4, [3-{4-[7-(1-methyl-1H-pyrazol-4-yl)-1,6-naphthyridin-5-yl]-1H-pyrazol-1-yl}-1-(2,2,2-trifluoroethyl)azetidin-3-yl]acetonitrile]	17 nM	97 nM	26 nM	5170 nM				
N#CC[C@]1(n2ccc(-c3nc(-c4ccc(S(N)(=O)=O)nc4)cc4ncccc34)n2)C[C@H](C#N)C1 [Example 210, 5-(5-{1-[trans-3-cyano-1-(cyanomethyl)cyclobutyl]-1H-pyrazol-3-yl}-1,6-naphthyridin-7-yl)pyridine-2-sulfonamide]	62 nM	1530 nM	300 nM	> 10000 nM				
